# Measured values reported in ChEMBL document CHEMBL6153106, “Synergistic Anti-Ferroptosis with a Minimalistic, Peroxide-Triggered Carbon Monoxide Donor for Parkinson's Disease” (J Med Chem, 2025).
# The source made the active and inactive calls. No cut-off for these calls is given here.
# Legend:
# [1] = Induction of ONOO-induced CO release in PBS buffer at pH 7.4 at 100 uM by HPLC analysis; format: functional
# [2] = Induction of H2O2-induced CO release in PBS buffer at pH 7.4 at 100 uM by HPLC analysis; format: functional
# Mus musculus [3] = assay: Anti-parkinson activity in MPTP-induced male C57BL/6J mouse model assessed as increase in GPX4 expression in midbrain at 6 mg/kg, iv pretreated with compound for 1 to 11 days followed by MPTP-induction for 1 to 5 days and measured on day 26 by Western blot analysis; format: functional, organism-based; conditions: time 26.0 day
# Mus musculus [4] = assay: Anti-parkinson activity in MPTP-induced male C57BL/6J mouse model assessed as increase in total number of fecal pellets production at 6 mg/kg, iv pretreated with compound for 1 day followed by MPTP-induction for 2 to 9 days and measured after 10 days by elevated plus maze test; format: functional, organism-based; conditions: time 10.0 day
# [5] = Induction of ONOO-induced CO release in PBS buffer at pH 7.4 assessed as increase in fluorescence intensity at 100 uM incubated for 30 min by gas detector analysis; format: functional
# Mus musculus [6] = assay: Anti-parkinson activity in MPTP-induced male C57BL/6J mouse model assessed as decrease in total alpha-synuclein level in midbrain at 6 mg/kg, iv pretreated with compound for 1 to 11 days followed by MPTP-induction for 1 to 5 days and measured on day 26 by Western blot analysis; format: functional, organism-based; conditions: time 26.0 day
# Mus musculus [7] = assay: Anti-parkinson activity in MPTP-induced male C57BL/6J mouse model assessed as increase in frequency of open arms entries at 6 mg/kg, iv pretreated with compound for 1 day followed by MPTP-induction for 2 to 9 days and measured after 10 days by elevated plus maze test; format: functional, organism-based; conditions: time 10.0 day
# Mus musculus [8] = assay: Anti-parkinson activity in MPTP-induced male C57BL/6J mouse model assessed as improvement in hindlimb clasping reflex at 6 mg/kg, iv pretreated with compound for 1 to 11 days followed by MPTP-induction for 1 to 5 days and measured on day 24 by hindlimb clasping test; format: functional, organism-based; conditions: time 24.0 day
# Mus musculus [9] = assay: Anti-parkinson activity in MPTP-induced male C57BL/6J mouse model assessed as reduction in DMT1 level in midbrain at 6 mg/kg, iv pretreated with compound for 1 to 11 days followed by MPTP-induction for 1 to 5 days and measured on day 21; format: functional, organism-based; conditions: time 21.0 day
# [10] = Induction of H2O2-induced CO release in PBS buffer at pH 7.4 assessed as increase in fluorescence intensity at 100 uM incubated for 30 min by gas detector analysis; format: functional
# [11] = Induction of ONOO-induced CO release in PBS buffer at pH 7.4 at 100 uM in presence of PdCl2 by fluorescence based analysis; format: functional
# Mus musculus [12] = assay: Anti-parkinson activity in MPTP-induced male C57BL/6J mouse model assessed as increase in latency period at 6 mg/kg, iv pretreated with compound for 1 to 11 days followed by MPTP-induction for 1 to 5 days and measured on day 24 by rotarod test; format: functional, organism-based; conditions: time 24.0 day
# Mus musculus [13] = assay: Anti-parkinson activity in MPTP-induced male C57BL/6J mouse model assessed as increase in TH level in substantia nigra pars compacta at 6 mg/kg, iv pretreated with compound for 1 to 11 days followed by MPTP-induction for 1 to 5 days and measured on day 26 by immunofluorescence analysis; format: functional, organism-based; conditions: time 26.0 day
# Mus musculus [14] = assay: Anti-parkinson activity in MPTP-induced male C57BL/6J mouse model assessed as decrease in descending time at 6 mg/kg, iv pretreated with compound for 1 to 11 days followed by MPTP-induction for 1 to 5 days and measured on day 24 by pole test; format: functional, organism-based; conditions: time 24.0 day
# [15] = Induction of ONOO-induced CO release in PBS buffer at pH 7.4 assessed as retention time at 100 uM by gas chromatography analysis; format: functional
# [16] = Induction of H2O2-induced CO release in PBS buffer at pH 7.4 assessed as retention time at 100 uM by gas chromatography analysis; format: functional
# Mus musculus [17] = assay: Anti-parkinson activity in MPTP-induced male C57BL/6J mouse model assessed as reduction in TFRC level in midbrain at 6 mg/kg, iv pretreated with compound for 1 to 11 days followed by MPTP-induction for 1 to 5 days and measured on day 21; format: functional, organism-based; conditions: time 21.0 day
# Mus musculus [18] = assay: Anti-parkinson activity in MPTP-induced male C57BL/6J mouse model assessed as increase in total distance traveled at 6 mg/kg, iv pretreated with compound for 1 day followed by MPTP-induction for 2 to 9 days and measured after 10 days by open field test; format: functional, organism-based; conditions: time 10.0 day
# SH-SY5Y [19] = assay: Inhibition of ferroptosis in MPP+-induced human SH-SY5Y cells assessed as reduction in 4-HNE level by Western blot analysis; format: functional, cell-based
# Mus musculus [20] = assay: Anti-parkinson activity in MPTP-induced male C57BL/6J mouse model assessed as reduction in free ferrous iron level in midbrain at 6 mg/kg, iv pretreated with compound for 1 to 11 days followed by MPTP-induction for 1 to 5 days and measured on day 21; format: functional, organism-based; conditions: time 21.0 day
# Mus musculus [21] = assay: Anti-parkinson activity in MPTP-induced male C57BL/6J mouse model assessed as reduction in MDA level in midbrain at 6 mg/kg, iv pretreated with compound for 1 to 11 days followed by MPTP-induction for 1 to 5 days and measured on day 26 by Western blot analysis; format: functional, organism-based; conditions: time 26.0 day
# SH-SY5Y [22] = assay: Inhibition of ferroptosis in MPP+-induced human SH-SY5Y cells assessed as increase in GPX4 level by Western blot analysis; format: functional, cell-based
# SH-SY5Y [23] = assay: Inhibition of ferroptosis in MPP+-induced human SH-SY5Y cells assessed as decrease in intracellular ONOO release by measuring fluorescence intensity at 10 uM pretreated with MPP+ for 20 hrs followed by compound treatment for 2 hrs by HK-green-4I probe based confocal microscopic analysis; format: functional, cell-based
# Mus musculus [24] = assay: Anti-parkinson activity in MPTP-induced male C57BL/6J mouse model assessed as increase in GPX4 expression in substantia nigra pars compacta at 6 mg/kg, iv pretreated with compound for 1 to 11 days followed by MPTP-induction for 1 to 5 days and measured on day 26 by immunostaining based analysis; format: functional, organism-based; conditions: time 26.0 day
# Mus musculus [25] = assay: Anti-parkinson activity in MPTP-induced male C57BL/6J mouse model assessed as reduction in 4-HNE level in midbrain at 6 mg/kg, iv pretreated with compound for 1 to 11 days followed by MPTP-induction for 1 to 5 days and measured on day 26 by Western blot analysis; format: functional, organism-based; conditions: time 26.0 day
# SH-SY5Y [26] = assay: Inhibition of ferroptosis in MPP+-induced human SH-SY5Y cells assessed as decrease in intracellular Fe2+ release by measuring fluorescence intensity at 10 uM pretreated with MPP+ for 20 hrs followed by compound treatment for 2 hrs by FerroOrange probe based confocal microscopic analysis; format: functional, cell-based
# Mus musculus [27] = assay: Anti-parkinson activity in MPTP-induced male C57BL/6J mouse model assessed as increase in TH expression in substantia nigra pars compacta at 6 mg/kg, iv pretreated with compound for 1 to 11 days followed by MPTP-induction for 1 to 5 days and measured on day 26 by immunostaining based analysis; format: functional, organism-based; conditions: time 26.0 day
# Mus musculus [28] = assay: Anti-parkinson activity in MPTP-induced male C57BL/6J mouse model assessed as decrease in phosphorylated alpha-synuclein level in midbrain at 6 mg/kg, iv pretreated with compound for 1 to 11 days followed by MPTP-induction for 1 to 5 days and measured on day 26 by Western blot analysis; format: functional, organism-based; conditions: time 26.0 day
# Mus musculus [29] = assay: Anti-parkinson activity in MPTP-induced male C57BL/6J mouse model assessed as increase in SLC7A11 expression in midbrain at 6 mg/kg, iv pretreated with compound for 1 to 11 days followed by MPTP-induction for 1 to 5 days and measured on day 26 by Western blot analysis; format: functional, organism-based; conditions: time 26.0 day
# Mus musculus [30] = assay: Anti-parkinson activity in MPTP-induced male C57BL/6J mouse model assessed as reduction in NCOA4 level in midbrain at 6 mg/kg, iv pretreated with compound for 1 to 11 days followed by MPTP-induction for 1 to 5 days and measured on day 21; format: functional, organism-based; conditions: time 21.0 day
# SH-SY5Y [31] = assay: Inhibition of ferroptosis in MPP+-induced human SH-SY5Y cells assessed as induction of CO release by measuring increase in fluorescent intensity at 10 uM pretreated with MPP+ for 20 hrs followed by compound treatment for 30 mins by COP490 probe based confocal microscopic analysis; format: functional, cell-based
# Mus musculus [32] = assay: Anti-parkinson activity in MPTP-induced male C57BL/6J mouse model assessed as increase in TH level in substantia nigra pars compacta at 6 mg/kg, iv pretreated with compound for 1 to 11 days followed by MPTP-induction for 1 to 5 days and measured on day 26 by Western blot analysis; format: functional, organism-based; conditions: time 26.0 day
# [33] = Induction of ONOO-induced CO release in PBS buffer at pH 7.4 at 100 uM by gold-standard CO-myoglobin assay; format: functional
# Mus musculus [34] = assay: Anti-parkinson activity in MPTP-induced male C57BL/6J mouse model assessed as increase in distance traveled in open arms at 6 mg/kg, iv pretreated with compound for 1 day followed by MPTP-induction for 2 to 9 days and measured after 10 days by elevated plus maze test; format: functional, organism-based; conditions: time 10.0 day
# SH-SY5Y [35] = assay: Inhibition of ferroptosis in MPP+-induced human SH-SY5Y cells assessed as reduction in DMT1 level by Western blot analysis; format: functional, cell-based
# Mus musculus [36] = assay: Anti-parkinson activity in MPTP-induced male C57BL/6J mouse model assessed as decrease in […] expression in midbrain at 6 mg/kg, iv pretreated with compound for 1 to 11 days followed by MPTP-induction for 1 to 5 days and measured on day 26 by Western blot analysis; format: functional, organism-based; conditions: time 26.0 day
# Mus musculus [37] = assay: Anti-parkinson activity in MPTP-induced male C57BL/6J mouse model assessed as increase in mean speed at 6 mg/kg, iv pretreated with compound for 1 day followed by MPTP-induction for 2 to 9 days and measured after 10 days by open field test; format: functional, organism-based; conditions: time 10.0 day
smiles,measurement,setting,value
CC(=O)c1cc(F)ccc1O,Activity,[1],Active
same,Activity,[2],Active
COC(=O)C(=O)OC1(C)C(=O)Oc2ccc(F)cc21 (configuration not stated),Activity,Mus musculus [3],Active
same,Activity,Mus musculus [4],Active
same,Activity,[5],Active
same,Activity,Mus musculus [6],Active
same,Activity,Mus musculus [7],Active
same,Activity,Mus musculus [8],Active
same,Activity,Mus musculus [9],Active
same,Activity,[10],Active
same,Activity,[11],Weak_effect
same,Activity,Mus musculus [12],Active
same,Activity,Mus musculus [13],Active
same,Activity,Mus musculus [14],Active
same,Retention time,[15],1.96 min
same,Retention time,[16],3.86 min
same,Activity,Mus musculus [17],Active
same,Activity,Mus musculus [18],Active
same,inhibition,SH-SY5Y [19],Active
same,Activity,Mus musculus [20],Active
same,Activity,Mus musculus [21],Active
same,inhibition,SH-SY5Y [22],Active
same,inhibition,SH-SY5Y [23],Active
same,Activity,Mus musculus [24],Active
same,Activity,Mus musculus [25],Active
same,inhibition,SH-SY5Y [26],Active
same,Activity,Mus musculus [27],Active
same,Activity,Mus musculus [28],Active
same,Activity,Mus musculus [29],Active
same,Activity,Mus musculus [30],Active
same,inhibition,SH-SY5Y [31],Active
same,Activity,Mus musculus [32],Active
same,Activity,[33],Active
same,Activity,Mus musculus [34],Active
same,inhibition,SH-SY5Y [35],Active
same,Activity,Mus musculus [36],Active
same,Activity,Mus musculus [37],Active
